Format in all cases: ADME
The target of data set [1] is T1, Albumin (Bos taurus, UniProt P02769). As to the kind of experiment: Binding affinity to bovine serum albumin by fluorescence spectroscopy analysis. Conditions: cattle, isolated protein; call rule not given here.
The target of data set [2] is T1, Albumin. As to the kind of experiment: Binding affinity to bovine serum albumin turn at 0.5 mM by circular dichroism analysis. The note with it: cattle, isolated protein, 500 µM.
The target in data set [3] is T1, Albumin. The data set is described as follows: Binding affinity to bovine serum albumin beta-sheet at 0.5 mM by circular dichroism analysis. Conditions: cattle, isolated protein, 500 µM.
Data set [4] has as its target T1, Albumin. As to the kind of experiment: Binding affinity to bovine serum albumin by fluorescence quenching assay. Conditions: cattle, isolated protein.
For data set [5], the target named is T1, Albumin. The data set is described as follows: Binding affinity to bovine serum albumin random coil (1648 to 1641 cm'-1) at 0.5 mM after 2 hrs by FTIR spectroscopic analysis. Conditions: cattle, isolated protein, 500 µM.
Data set [6] addresses T1, Albumin. As to the kind of experiment: Binding affinity to bovine serum albumin random coil at 0.5 mM by circular dichroism analysis. Conditions: cattle, isolated protein, 500 µM. In general terms: CD spectra are sensitive to the conformation of chiral molecules.
Data set [7] has as its target T1, Albumin. The data set is described as follows: Binding affinity to bovine serum albumin beta-sheet (1640 to 1610 cm'-1) at 0.5 mM after 2 hrs by FTIR spectroscopic analysis. Conditions: cattle, isolated protein, 500 µM.
Data set [8] has as its target T1, Albumin. The data set is described as follows: Binding affinity to bovine serum albumin alpha-helix at 0.5 mM by circular dichroism analysis. Conditions: cattle, isolated protein, 500 µM.
The target of data set [9] is T1, Albumin. As to the kind of experiment: Binding affinity to bovine serum albumin alpha-helix (1660 to 1650 cm'-1) at 0.5 mM after 2 hrs by FTIR spectroscopic analysis. Conditions: cattle, isolated protein, 500 µM.
Data set [10] has as its target T1, Albumin. As to the kind of experiment: Binding affinity to bovine serum albumin turn (1680 to 1660 cm'-1) at 0.5 mM after 2 hrs by FTIR spectroscopic analysis. The note with it: cattle, isolated protein, 500 µM.
For data set [11], the target named is T1, Albumin. As to the kind of experiment: Binding affinity to bovine serum albumin at 0.125 mM after 2 hrs by FTIR spectroscopic analysis. Conditions: cattle, isolated protein, 125 µM.
For data set [12], the target named is T1, Albumin. As to the kind of experiment: Binding affinity to bovine serum albumin beta-antiparallel (1692 to 1680 cm'-1) at 0.5 mM after 2 hrs by FTIR spectroscopic analysis. The note with it: cattle, isolated protein, 500 µM.
Data set [13] concerns the target T1, Albumin. As to the kind of experiment: Binding affinity to bovine serum albumin random coil (1648 to 1641 cm'-1) at 0.1 mM after 2 hrs by FTIR spectroscopic analysis. The note with it: cattle, isolated protein, 100 µM.
For data set [14], the target named is T1, Albumin. The data set is described as follows: Binding affinity to bovine serum albumin alpha-helix (1660 to 1650 cm'-1) at 0.1 mM after 2 hrs by FTIR spectroscopic analysis. Conditions: cattle, isolated protein, 100 µM.
Data set [15] has as its target T1, Albumin. The data set is described as follows: Binding affinity to bovine serum albumin beta-sheet (1640 to 1610 cm'-1) at 0.1 mM after 2 hrs by FTIR spectroscopic analysis. Conditions: cattle, isolated protein, 100 µM.
The target in data set [16] is T1, Albumin. As to the kind of experiment: Binding affinity to bovine serum albumin beta-antiparallel (1692 to 1680 cm'-1) at 0.1 mM after 2 hrs by FTIR spectroscopic analysis. Conditions: cattle, isolated protein, 100 µM.
Data set [17] concerns the target T1, Albumin. The data set is described as follows: Binding affinity to bovine serum albumin turn (1680 to 1660 cm'-1) at 0.1 mM after 2 hrs by FTIR spectroscopic analysis. The note with it: cattle, isolated protein, 100 µM.

T1 sequence (P02769 whole entry): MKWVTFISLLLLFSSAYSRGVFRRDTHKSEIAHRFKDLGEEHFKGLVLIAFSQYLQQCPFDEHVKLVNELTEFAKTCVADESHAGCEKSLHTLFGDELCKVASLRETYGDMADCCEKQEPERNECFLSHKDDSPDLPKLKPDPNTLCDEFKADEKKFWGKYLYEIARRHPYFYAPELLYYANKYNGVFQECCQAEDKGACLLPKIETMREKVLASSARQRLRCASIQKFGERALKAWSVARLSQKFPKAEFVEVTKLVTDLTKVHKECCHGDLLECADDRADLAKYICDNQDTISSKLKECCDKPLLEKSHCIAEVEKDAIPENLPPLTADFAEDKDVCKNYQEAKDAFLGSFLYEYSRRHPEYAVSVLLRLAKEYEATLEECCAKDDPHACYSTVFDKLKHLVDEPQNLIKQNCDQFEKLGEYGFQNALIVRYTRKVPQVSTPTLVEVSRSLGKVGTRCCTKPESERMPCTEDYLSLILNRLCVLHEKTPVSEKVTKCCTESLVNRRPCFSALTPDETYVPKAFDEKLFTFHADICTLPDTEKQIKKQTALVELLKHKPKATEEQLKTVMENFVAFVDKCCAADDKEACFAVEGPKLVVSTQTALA

Turning to `CC1=C(/C=C/C(C)=C/C=C/C(C)=C/CO)C(C)(C)CCC1` [RETINOL], the K at Albumin [1] stood at 5.3 ×10⁶ /M. The Activity on Albumin [2] is recorded as 14%; on Albumin [3], 16%; on Albumin [5], 20%; on Albumin [6], 18%; on Albumin [7], 19%; on Albumin [8], 52%. Besides, the Activity at Albumin [9] was 36%; at Albumin [10], 15%; on Albumin [11], “Active”; on Albumin [12], 10%. This molecule yielded a Kq on Albumin [4] of 4.5 ×10¹³ /M/sec.

As to `CC1=C(/C=C/C(C)=C/C=C/C(C)=C/C(=O)O)C(C)(C)CCC1` [TRETINOIN], the Activity on Albumin [13] is recorded as 25%; on Albumin [2], 18%; at Albumin [3], 18%; at Albumin [6], 20%; at Albumin [14] it was 26%; on Albumin [15], 15%. In addition, the Activity is 44% on Albumin [8], 7% on Albumin [16], 27% on Albumin [17] and “Active” on Albumin [11]. This molecule also came in with a K at Albumin [1] of 2.3 ×10⁶ /M. This molecule had a Kq on Albumin [4] of 2.5 ×10¹³ /M/sec.

The record behind these values is ChEMBL document CHEMBL2169873, “Binding sites of retinol and retinoic acid with serum albumins” (Eur J Med Chem, 2012).
